Results: US20080280866A1, “Method of Treating or Sepsis” (priority 2004, published 2008)
Entries after “also recorded” stand apart in the source; their conditions may differ. Like-named read-outs stand apart in the source and are kept apart here.

Key:
[1] = system: voltage-dependent L-type calcium channels; conditions: GH4C1 cells, values determined by Harper; cited from earlier work
SOC channels = conditions: HL-60 cells, values determined by Harper; cited from earlier work
PMN = assay: Rat T/HS, post-shock treatment: PMN CD11b and respiratory burst by flow cytometry; format: in vivo; conditions: IP post-treatment, whole blood 3 hrs post reperfusion; for PMN CD11b expression: FIG. 2; for PMN priming for respiratory burst initiated by PMA: FIG. 3
Description: Male rats underwent T/HS with or without 4-[4-(4-chloro-phenyl)-thiazol-2-ylamino]-phenol or N-propargyl-nitrendipine administered IP in post-treatment as above. Small (200 μL) whole blood samples removed prior to shock and 3 hrs post reperfusion were assayed for PMN CD11b (FIG. 2) and respiratory burst (FIG. 3) by flow cytometry. […] Left histogram, preshock; Right histogram, 3 h post-shock; Center (dark) histogram, 3 h post-shock PMN from animal treated with the indicated drug during resuscitation. Representative flow histograms, n=3-4 per condition. P<0.01, ANOVA/Tukey's test for all inter-group comparisons. […] Representative flow histograms are arranged as in FIG. 2, n=3-4 per condition. P<0.01 by ANOVA/Tukey's test for all inter-group comparisons.

p38 MAP kinase = assay: Rat T/HS, post-shock treatment: Western blot of PMN phosphorylated p38 MAP kinase; format: in vivo; conditions: IP post-treatment; PMN lysates 3 hours after T/HS; FIG. 4
Description: The phosphorylation of p38-mitogen associated protein kinase [“p38 MAP kinase”] in the presence of inflammatory stimuli is a key cellular mechanism involved in irreversible neutrophil activation and post-shock organ injury. Male rats underwent T/HS with or without 4-[4-(4-chloro-phenyl)-thiazol-2-ylamino]-phenol or N-propargyl-nitrendipine administered IP in post-treatment as above. At the end of 3 hours post reperfusion, animals were sacrificed by exsanguination. PMN were isolated. Whole cell lysates were probed using specific antibodies for phosphorylated p38 MAP kinase. SOC inhibition via either strategy led to diminished activation. Lysates of rat PMN were sampled 3 hours after T/HS. Animals were treated with 4-[4-(4-chloro-phenyl)-thiazol-2-ylamino]-phenol or vehicle (DMSO) at the time of resuscitation. Positive controls (+) were rat PMN activated in vitro with fMLP. […] Thus SIP/SOC inhibition diminishes PMN p38 MAP kinase activation by T/HS.

[2] = system: rat traumatic, hemorrhagic shock model; assay: Rat traumatic, hemorrhagic shock model, treatment prior to shock
Description: A rat traumatic, hemorrhagic shock model was used (32). […] Animals were then underwent T/HS, were resuscitated with shed blood and sacrificed by exsanguination 3 hours after resuscitation. We assayed lung injury as % Evans Blue dye leak, which provides a measure of the leakiness of lung capillaries. PMN activation was assessed as CD11b expression by flow cytometry (Table 1).

rat T/HS = assay: Rat T/HS, post-shock treatment: lung MPO and Evans Blue dye leak; format: in vivo; conditions: IP after return of 10% of shed blood, estimated plasma level 30 μM; 3 hours after reperfusion; FIG. 1
Description: Male rats underwent standard T/HS. 4-[4-(4-Chloro-phenyl)-thiazol-2-ylamino]-phenol or N-propargyl-nitrendipine (estimated plasma level 30 μM for each) or vehicle were administered IP after the return of 10% of total shed blood to the animal. Different groups of animals (n=6/group) were sacrificed 3 hours after reperfusion for bronchoalveolar lavage and Evan's Blue dye leak assay, or to harvest the lungs for MPO assays (FIG. 1).
N=6 animals per condition, *p<0.01 for inter-group comparisons.

[3] = format: in vivo
Description: In all the above experiments, rats undergoing T/HS were treated with SKI-2 or N-propargyl-nitrendipine given as an IP bolus just after the BP nadir. At this point, MAP has risen only from 30-40 to approximately 50 mmHg.

PMN SOC = conditions: cited from earlier work
[4] = IP bolus just after the BP nadir

COC(=O)C1=C(C)N(C)C(C)=C(C(=O)OC)C1c1cccc([N+](=O)[O-])c1 [Compound 30]
IC50 [1]: 2000 nM | IC50 (SOC channels): 2800 ± 30 nM

CCOC(=O)C1=C(C)N(C)C(C)=C(C(=O)OC)C1c1cccc([N+](=O)[O-])c1 (stereo not shown) [Compound 32]
IC50 [1]: 1300 ± 300 nM | IC50 (SOC channels): 2600 ± 1100 nM

CCOC(=O)C1=C(C)N(CC)C(C)=C(C(=O)OC)C1c1cccc([N+](=O)[O-])c1 (stereo not shown) [Compound 33]
IC50 [1]: 2300 ± 400 nM | IC50 (SOC channels): 6000 nM

C=CCN1C(C)=C(C(=O)OC)C(c2cccc([N+](=O)[O-])c2)C(C(=O)OCC)=C1C (stereo not shown) [Compound 34]
IC50 [1]: 3800 ± 1800 nM | IC50 (SOC channels): 6800 ± 1800 nM

C#CCN1C(C)=C(C(=O)OC)C(c2cccc([N+](=O)[O-])c2)C(C(=O)OCC)=C1C (stereo not shown) [Compound 35, N-propargyl-nitrendipine]
PMN CD11b expression (PMN): decreased CD11b expression almost to the level seen prior to shock | PMN priming for respiratory burst initiated by PMA (PMN): decreased PMN priming for respiratory burst initiated by PMA (phorbol 12-myristate 13-acetate) almost to the levels seen prior to shock | PMN p38 MAP kinase phosphorylation/activation (p38 MAP kinase): Attenuation of p38 MAP Kinase phosphorylation and activation was also seen | IC50 [1]: 2100 ± 200 nM | Attenuation of lung injury ([2]; pre-treatment IP, target concentration 30 μm): Identical attenuation of lung injury as in Example 1 | Lung PMN infiltration by myeloperoxidase (MPO) assay ([2]; pre-treatment IP, data not shown): diminished lung PMN infiltration | IC50 (SOC channels): 1700 ± 1300 nM | Capillary-alveolar leakage (Evans Blue dye leak) (rat T/HS): prevented PMN accumulation and subsequent capillary-alveolar leakage; also recorded: yielded the same effects | Pulmonary PMN infiltration/accumulation (MPO assay) (rat T/HS): prevented PMN accumulation; also recorded: yielded the same effects | Episodes of hypotension [3, 4]: No episodes of hypotension were seen | Survival of the acute shock phase [3, 4]: all animals survived the acute shock phase

Oc1ccc(Nc2nc(-c3ccc(Cl)cc3)cs2)cc1 [SKI-2, 4-[4-(4-Chloro-phenyl)-thiazol-2-ylamino]-phenol]
PMN CD11b expression (PMN): decreased CD11b expression almost to the level seen prior to shock | PMN priming for respiratory burst initiated by PMA (PMN): decreased PMN priming for respiratory burst initiated by PMA (phorbol 12-myristate 13-acetate) almost to the levels seen prior to shock | PMN p38 MAP kinase phosphorylation/activation (p38 MAP kinase): attenuation of MAPK activation | CD11b (MFI) ([2]; PMN activation by flow cytometry, IP at laparotomy prior to shock, estimated plasma level 30 μM, 3 hours after resuscitation): 225 ± 18 MFI | Evans Blue (%) ([2]; lung injury as % Evans Blue dye leak, IP prior to shock, estimated plasma level 30 μM, 3 hours after resuscitation): 3.8 ± 1.7 % | Hemodynamic effects ([2]; pre-treatment IP): No unexpected hemodynamic effects were noted | Phlebotomy volumes ([2]; treatment vs placebo groups, pre-treatment IP): identical in the treatment and placebo groups | Capillary-alveolar leakage (Evans Blue dye leak) (rat T/HS): prevented PMN accumulation and subsequent capillary-alveolar leakage; also recorded: inhibits PMN mediated lung injury | Pulmonary PMN infiltration/accumulation (MPO assay) (rat T/HS): prevented PMN accumulation; also recorded: inhibits PMN mediated lung injury | Episodes of hypotension [3, 4]: No episodes of hypotension were seen | Survival of the acute shock phase ([3]; rat, in vivo, ip): all animals survived the acute shock phase

[Gd+3] [gadolinium (Gd3+), gadolinium]
Concentration inhibiting PMN SOC (PMN SOC): low-mid nanomolar concentrations
